Assay results reported in PubChem BioAssay AID2060606 (Molecular Pharmacology Branch, DTP, NCI, 2025).

System: 922993-354-T-J3-PDC complex spheroids, viability, % test/control
Experiment: Anticancer human tumor 922993-354-T-J3-PDC patient-derived endometrial carcinoma cell line growth inhibition [CLK]
Conditions: for IC50: curve of first compound; for viability, T/C: stronger effect = lower value; active means viability on the fitted dose curve at most 10% of control; inactive means the rest
Description: A high-throughput screen of multi-cell type tumor spheroids was designed to identify active combinations of […] and targeted small molecules. Complex spheroids include a stromal component modeled by human endothelial cells (HUVEC) and fibroblasts modeled by human mesenchymal stem cells (MSCs). The concentration ranges selected for each drug and investigational agent were based upon clinically achievable concentrations if the clinical Cmax of the agent was known.
Compounds. The drugs and investigational agents: cirtuvivint (SM08502; NSC835563), CC-671 (NSC850746), vemurafenib (NSC761431), tapotoclax (NSC804041), sotorasib (NSC818433), adagrasib (NSC831453), MRTX-1133 (NSC836407), BAY2416964 (NSC825713), copanlisib (NSC816437), inavolisib (NSC800729), abemaciclib (NSC768073), osimertinib (NSC779217), entinostat (NSC756642), eltanexor (KPT-8602, NSC794443), venetoclax (NSC766270), ceralasertib (NSC777638), bortezomib (NSC756655), olaparib (NSC753686), talazoparib (NSC767125), alisertib (NSC759677), peposertib (NSC802822), gemcitabine (NSC613327), 5-fluorouracil (NSC19893), SN-38 (NSC673596), oxaliplatin (NSC266046), paclitaxel (NSC125973), and doxorubicin (NSC123127), were obtained from the National Cancer Institute (NCI) Developmental Therapeutics Program Chemical Repository. The FDA-approved anticancer drug set is available from the Developmental Therapeutics Program at https://dtp.cancer.gov/organization/dscb/obtaining/available plates.htm. […] The stock solutions were prepared in dimethyl sulfoxide (DMSO, Sigma-Aldrich, St. Louis, MO, cat. D2650), except for the platinum complexes which were prepared in saline (Quality Biological, Gaithersburg, MD, cat. 114-055-101), at 800-fold the tested concentration and stored at -70 degrees C prior to their use. All drugs and investigational agents were tested over a range starting from a high concentration at or near the clinical Cmax and decreasing in half-log increments. If the clinical Cmax for an agent had not been determined, the highest concentration tested was 10 microM.
Cell Culture. All cells were maintained in an incubator at 37 degrees C and 5% CO2 with 95% humidity. The PDC lines were cultured according to standard operating procedures established by the NCI PDMR. Briefly, all PDCs were thawed and cultured in Matrigel-coated flasks prepared with a working solution of 1X Ham's F-12 nutrient mix, without supplementation (Invitrogen, Waltham, MA, cat. 11765054), 100 U/mL penicillin-streptomycin (Invitrogen, cat. 15140122), and 2.5% Matrigel (Corning Inc., Corning, NY, cat. 354248) for the first three passages. The 947758-054-R-J2-PDC line was cultured in 6B/Colon 1A media, which includes advanced DMEM/F-12 (Thermo Fisher Scientific, cat. 12634028), 10 mM HEPES (Thermo Fisher Scientific, cat. 15630080), 1X GlutaMAX supplement (Thermo Fisher Scientific, cat. 35050061), 0.1 mg/mL primocin (InvivoGen, cat. ant-pm-2), 10% defined fetal bovine serum, heat inactivated (HyClone Laboratories Inc., cat. SH30070.03HI), 1.25 mM N-Acetyl-L-cysteine (Sigma-Aldrich, cat. A9165), 10 mM nicotinamide (Sigma-Aldrich, cat. N0636), 1X B-27 supplement (Thermo Fisher Scientific, cat. 17504044), 1X N-2 supplement (Thermo Fisher Scientific, cat. 17502048), and 10 microM Y-27632 dihydrochloride (Tocris Bioscience, cat. 1254). The 876862-298-R-J1-PDC was cultured in 6E media, which includes all 6B/Colon 1A media components plus 50% L-WRN conditioned media (ATCC, cat. CRL-3276), 50 ng/mL recombinant human EGF recombinant protein (hEGF; Thermo Fisher Scientific, cat. PHG0311), 10 ng/mL recombinant human fibroblast growth factor 10 (hGFG-10; PeproTech, cat. 100-26), 1 ng/mL recombinant human fibroblast growth factor 2 (hFGF-2; PeproTech, cat. 100-18B), and 1 µM prostaglandin E2 (PGE2; Tocris, cat. 2296). The 227483-062-R1-J1-PDC line was cultured in Panc media, containing all 6E components except hFGF-2, with the addition of 500 nM SB-431542 (Selleckchem, cat. S1067) and 10 nM gastrin (Tocris, cat. 3006). […]

[1] = second compound 0.0316 µM, first compound 0.0316 µM
[2] = second compound 0.0316 µM, first compound 0.1 µM
[3] = second compound 0.0316 µM, first compound 0.316 µM
[4] = second compound 0.0316 µM, first compound 1 µM
[5] = second compound 0.0316 µM, first compound 3.16 µM
[6] = second compound 0.0316 µM, first compound 10 µM
[7] = second compound 0.1 µM, first compound 0.0316 µM
[8] = second compound 0.1 µM, first compound 0.1 µM
[9] = second compound 0.1 µM, first compound 0.316 µM
[10] = second compound 0.1 µM, first compound 1 µM
[11] = second compound 0.1 µM, first compound 3.16 µM
[12] = second compound 0.1 µM, first compound 10 µM
[13] = second compound 0.316 µM, first compound 0.0316 µM
[14] = second compound 0.316 µM, first compound 0.1 µM
[15] = second compound 0.316 µM, first compound 0.316 µM
[16] = second compound 0.316 µM, first compound 1 µM
[17] = second compound 0.316 µM, first compound 3.16 µM
[18] = second compound 0.316 µM, first compound 10 µM
[19] = second compound 1 µM, first compound 0.0316 µM
[20] = second compound 1 µM, first compound 0.1 µM
[21] = second compound 1 µM, first compound 0.316 µM
[22] = second compound 1 µM, first compound 1 µM
[23] = second compound 1 µM, first compound 3.16 µM
[24] = second compound 1 µM, first compound 10 µM
[25] = second compound 3.16 µM, first compound 0.0316 µM
[26] = second compound 3.16 µM, first compound 0.1 µM
[27] = second compound 3.16 µM, first compound 0.316 µM
[28] = second compound 3.16 µM, first compound 1 µM
[29] = second compound 3.16 µM, first compound 3.16 µM
[30] = second compound 3.16 µM, first compound 10 µM
[31] = second compound 10 µM, first compound 0.0316 µM
[32] = second compound 10 µM, first compound 0.1 µM
[33] = second compound 10 µM, first compound 0.316 µM
[34] = second compound 10 µM, first compound 1 µM
[35] = second compound 10 µM, first compound 3.16 µM
[36] = second compound 10 µM, first compound 10 µM
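Further: spheroids exposed to the agents for 7 days before readout.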

C=CC(=O)N1CCN(c2nc(=O)n(-c3c(C)ccnc3C(C)C)c3nc(-c4c(O)cccc4F)c(F)cc23)C(C)C1 (centres undefined) + CN1CCN(c2cc(C(=O)Nc3cc4cc(-c5cnn(C)c5)ccc4cn3)ccn2)CC1
active: viability, T/C [19] 0.19% | viability, T/C [20] 0.68% | viability, T/C [21] 0.16% | viability, T/C [22] 0.93% | viability, T/C [23] 0.13% | viability, T/C [24] 0.12% | viability, T/C [25] 0.13% | viability, T/C [26] 0.17% | viability, T/C [27] 1.53% | viability, T/C [28] 0.1% | viability, T/C [29] 0.14% | viability, T/C [30] 1.14% | viability, T/C [31] 0.16% | viability, T/C [32] 0.18% | viability, T/C [33] 0.17% | viability, T/C [34] 0.15% | viability, T/C [35] 0.79% | viability, T/C [36] 0.2%
inactive: viability, T/C [1] 121% | viability, T/C [2] 123% | viability, T/C [3] 132% | viability, T/C [4] 116% | viability, T/C [5] 112% | viability, T/C [6] 112% | viability, T/C [7] 105% | viability, T/C [8] 98.6% | viability, T/C [9] 114% | viability, T/C [10] 91.6% | viability, T/C [11] 106% | viability, T/C [12] 90.1% | viability, T/C [13] 50.9% | viability, T/C [14] 48.5% | viability, T/C [15] 43.5% | viability, T/C [16] 37.8% | viability, T/C [17] 41.4% | viability, T/C [18] 47.4%
> 10000 nM: IC50 (second compound 0.0316 µM) | IC50 (second compound 0.1 µM)
< 31.6 nM: IC50 (second compound 1 µM) | IC50 (second compound 3.16 µM) | IC50 (second compound 10 µM)
43.3 nM: IC50 (second compound 0.316 µM)

COC1C=CCC(C)C(C)S(=O)(=O)NC(=O)c2ccc3c(c2)N(CC2CCC21)CC1(CCCc2cc(Cl)ccc21)CO3 (centres undefined) + CN1CCN(c2cc(C(=O)Nc3cc4cc(-c5cnn(C)c5)ccc4cn3)ccn2)CC1
< 31.6 nM: IC50 (second compound 0.316 µM) | IC50 (second compound 1 µM) | IC50 (second compound 3.16 µM) | IC50 (second compound 10 µM)
3790 nM: IC50 (second compound 0.1 µM)
5390 nM: IC50 (second compound 0.0316 µM)
active: viability, T/C [18] 7.1% | viability, T/C [19] 0.12% | viability, T/C [20] 0.13% | viability, T/C [21] 0.15% | viability, T/C [22] 0.22% | viability, T/C [23] 0.1% | viability, T/C [24] 0.79% | viability, T/C [25] 0.11% | viability, T/C [26] 0.17% | viability, T/C [27] 1.93% | viability, T/C [28] 0.13% | viability, T/C [29] 2.55% | viability, T/C [30] 0.89% | viability, T/C [31] 0.15% | viability, T/C [32] 1.42% | viability, T/C [33] 1.53% | viability, T/C [34] 0.22% | viability, T/C [35] 0.8% | viability, T/C [36] 2.41%
inactive: viability, T/C [1] 111% | viability, T/C [2] 107% | viability, T/C [3] 85.1% | viability, T/C [4] 91.4% | viability, T/C [5] 84.9% | viability, T/C [6] 13.6% | viability, T/C [7] 122% | viability, T/C [8] 99.7% | viability, T/C [9] 85.6% | viability, T/C [10] 90.1% | viability, T/C [11] 60.6% | viability, T/C [12] 10.8% | viability, T/C [13] 42.2% | viability, T/C [14] 48% | viability, T/C [15] 31.7% | viability, T/C [16] 21.1% | viability, T/C [17] 13.6%
